Source: patent US20030125242A1, “Polypeptides comprising multimers of nuclear localization signals or of protein transduction domains and their use for transferring molecules into cells” (priority 1999, published 2003)
Where no end group is shown, it is not given here.

Key:
16HBE14o cells = assay: tracking of DNA-TOTO-3/(PKKKRKVG)4-FITC complexes on their way to the nucleus; type: cell-based; conditions: 100% confluent cells, 5 μg CMVL-W, 24 μg peptide (N/P 8)
16HBE14o-cells [1] = assay: luciferase transfection assay with vector/DNA (CMVL-W) complexes; type: cell-based
16HBE14o-cells [2] = assay: inhibition of gene transfer by excess of free peptide, luciferase assay; type: cell-based; conditions: 30 fold molar excess of free peptide added 20 min before the complexes
DNase I = assay: stability of vector/DNA complexes against DNase I digestion, agarose gel; type: physicochemical; conditions: higher enzyme concentrations (2.5, 5, 10 U DNase I), 1 h at 37° C., 3 μg pEGFP
16HBE14o-cells [3] = assay: proportion of transgene (GFP) expressing cells by flow cytometry; type: cell-based; conditions: 1 μg pEGFP/(PKKKRKVG)4 complexes (N/P 8), 24 hours
Procedure: (A, B, D, E) Flow cytometry of 16HBE14o-cells transfected with DNA (pEGFP) or DNA complexed with (PKKKRKVG)4. Transfection was stopped after 24 hours. Cells were treated with trypsin and resuspended in medium. FCS: Forward scatter. FH-1: green channel for the GFP signal. (A, B) Control. Cells were only transfected with 1 μg pEGFP. Mean: 5.66. M1: 96% of total cells. M2: 4% of total cells. (D, E) Transfection with 1 μg pEGFP/(PKKKRKVG)4 complexes (N/P 8). Mean: 10.25. M1: 55% of total cells. M2: 45% of total cells. Near half the cell population expresses green fluorescence protein. (C, F) Fluorescence microscopy images of HeLa S6 cells transfected with (C) 1 μg pEGFP or (F) 1 μg pEGFP complexed with (PKKKRKVG)4 (N/P 8). Images were taken with a 40× objective (exposure time: 2 sec).
It was examined how many cells express the transgene product. 16HBE14o-cells were transfected with 1 μg pEGFP/(PKKKRKVG)4 complexes N/P 8 (24 hours) and measured by flow cytometry.

HeLa S6 cells [4] = assay: fluorescence in situ hybridisation of plasmid pEGFP after transfection (fluorescence microscopy and CLSM); type: cell-based; conditions: for location of plasmid DNA by CLSM: confocal laser scanning microscopy; for nuclear localization of plasmid DNA / cells showing signals in the nuclear region: fluorescence microscopy
HeLa S6 cells [5] = assay: nuclear transport of BSA covalently linked to peptide in digitonin permeabilized cells; type: cell-based; conditions: 600 nM peptide/BSA-BODIPY, 30 min, fluorescence microscope
COS7 cells [6] = assay: transfection efficiency at 4° C. compared with 37° C.; type: cell-based; conditions: 4 h transfection, COS7, luciferase after 24 h
Procedure: Cells were transfected with 1 μg of CMVL-W complexed with C(YGRKKRRQRRRG)24 at N/P=10 for 4 h at 4° C. or at 37° C. Luciferase activity was measured (10 sec) after 24 h.
At low temperatures such as 4° C. energy-dependent processes like the endosomal uptake are suppressed. For this reason transfection efficiency at 4° C. could be an indicator for the extend of endosomal uptake which takes place during the transfection period. Transfection was performed in the way as described above but for the 4° C. experiment the 24 well plate was incubated in a cool room at 4° C. for 4 h.

COS7 cells [7] = assay: effect of peptide on gene transfer mediated by PEI, fractured Dendrimers and Lipofectamine; type: cell-based

Q: Which results are given for “(PKKKRKVG)4: tetramer of the wild-type SV40 large T-antigen NLS PKKKRKV with a glycin added at the end of each NLS (SEQ ID NO: 5) (also: tetramer of PKKKRKVG, linkage not given here)”?
A: localization of complexes after 4 h (16HBE14o cells; 4 h): most of the complexes were outside the nucleus; localization of peptide and DNA after 30 h (16HBE14o cells; 30 h): could be found in the nucleus; cell transfection compared with DNA/Dendrimer-complexes (16HBE14o-cells [1]): cell transfection as high as with DNA/Dendrimer-complexes; cell transfection higher as with DNA/poly-L-lysine 2.9 kD/INF7a complexes (16HBE14o-cells [1]): 1000 fold; enhancement of cell transfection compared to studies without endosomolytic agents (16HBE14o-cells [1]): 10 fold; transfection rates compared with different non-viral vectors (16HBE14o-cells [1]; 1 μg CMVL-W, 4.8 μg (PKKKRKVG)4 (N/P 8), luciferase after 24 h): almost as high transfection rates as with Dendrimer/DNA complexes; increase of relative light units (RLU) per mg cell protein in comparison to poly-L-lysine (16HBE14o-cells [1]; 1 μg CMVL-W, vs poly-L-lysine 2.9 kD/DNA complexes, luciferase after 24 h): 100 fold; transfection results in comparison to transfections without (PKKKRKVG)4 (16HBE14o-cells [1]; 100% confluent cells, CMVL-W/Dendrimer complexes plus (PKKKRKVG)4): 10 fold; effect of added (PKKKRKVG)4 on transfection efficiency of PEI/CMVL-W and Dendrimer/CMVL-W complexes (16HBE14o-cells [1]; added in increasing concentrations to polymer/DNA complexes): significant increase of transfection efficiency; inhibition of gene transfer of DNA/(PKKKRKVG)4 complexes by free peptide (16HBE14o-cells [2]): complete blockade of gene transfer; DNA protection of complexed DNA against DNase I digestion (DNase I): still can bee seen; M1 of total cells (16HBE14o-cells [3]): 55%; M2 of total cells (16HBE14o-cells [3]): 45%; Mean (GFP signal, flow cytometry) (16HBE14o-cells [3]): 10.25; cells showing a GFP signal (16HBE14o-cells [3]): Approximately 50%; location of plasmid DNA by CLSM (HeLa S6 cells [4]; 2 hours): already plasmid DNA in the nucleus; nuclear localization of plasmid DNA (HeLa S6 cells [4]; 2 hours): plasmid DNA could be detected within the nuclear region; location of plasmid DNA by CLSM (HeLa S6 cells [4]; 24 hours): accumulated in the nucleus; cells showing signals in the nuclear region (HeLa S6 cells [4]; 24 hours): 68.9%; nuclear transport of covalently coupled BSA-BODIPY (HeLa S6 cells [5]): transports the coupled BSA into the nucleus

Q: How did the “gene transfer efficiency compared with (PKKKRKVG)4/DNA complexes” value (16HBE14o-cells [1]) turn out when “(PKTKRKVG)4: tetramer containing mutant large T-NLS (SEQ ID NO: 6); threonin mutant known to be transport deficient [reference compound]” was run?
A: significantly lower gene transfer efficiency

Q: What about the “location of plasmid DNA by CLSM” value (HeLa S6 cells [4]; 2 hours) of the same substance?
A: arranged around the nuclear membrane

Q: And the “nuclear localization of plasmid DNA” value (HeLa S6 cells [4]; 2 hours)?
A: nuclear localization of plasmid DNA was not seen

Q: What about the “location of plasmid DNA by CLSM” value (HeLa S6 cells [4]; 24 hours) of the same substance?
A: arranged around the nuclear membrane

Q: And the “cells showing signals in the nuclear region” value (HeLa S6 cells [4]; 24 hours)?
A: 14.7%

Q: And the “nuclear transport of covalently coupled BSA-BODIPY” value (HeLa S6 cells [5])?
A: no signal was seen in the nucleus

Q: Which “decrease of transfection efficiency at 4° C. compared to 37° C.” value (COS7 cells [6]) does the source give for “C(YGRKKRRQRRRG)2: dimer of HIV-1 TAT protein transduction domain YGRKKRRQRRR with G, N-terminal C (SEQ ID NO: 30) (CYGRKKRRQRRRG; also: dimer: C(YGRKKRRQRRRG)2, linkage not given here)” here?
A: 19 fold

Q: What about the “effect on gene transfer mediated by PEI” value (COS7 cells [7]; peptide N/P=1, then PEI 25 kD N/P 10) of the same substance?
A: enhances gene transfer

Q: What about the “effect on gene transfer mediated by fractured dendrimers” value (COS7 cells [7]; peptide N/P=1, then fractured Dendrimer N/P 4.5) of the same substance?
A: enhances gene transfer

Q: How did the “nuclear transport of covalently coupled BSA-BODIPY” value (HeLa S6 cells [5]) turn out when wheat germ agglutinin was run?
A: no signal was seen in the nucleus
